Earlier results as cited in patent publication US8444622B2, “Device, system, and method for targeted delivery of anti-inflammatory medicaments to a mammalian subject” (The Invention Science Fund I, LLC, priority 2009, dated 2013).

## COc1ccc2cc([C@H](C)C(=O)O)ccc2c1 [naproxen]
Appreciable drug concentrations may still be measurable after 24 hours
  elimination from synovial fluid: slow
Once daily dosing of naproxen sodium
  time to steady-state in synovial fluid: within a week
Synovial fluid, once daily dosing of naproxen sodium
  predicted accumulation ratio based on trough concentration: 2.4
